pIC50: −log10 of the molar value.
What was measured:
[1] = test system: HeLa; test: Antiproliferative activity against human HeLa cells assessed as reduction in cell viability after 72 hrs by MTT assay; format: functional, cell-based
[2] = test system: BGC-823; test: Antiproliferative activity against human BGC823 cells assessed as reduction in cell viability after 72 hrs by MTT assay; format: functional, cell-based; conditions: BGC-823, 72 h
[3] = test system: HT-29; test: Antiproliferative activity against human HT-29 cells assessed as reduction in cell viability after 72 hrs by MTT assay; format: functional, cell-based; conditions: HT-29, 72 h
[4] = test system: HepG2; test: Antiproliferative activity against human HepG2 cells assessed as reduction in cell viability after 72 hrs by MTT assay; format: functional, cell-based; conditions: HepG2, 72 h
[5] = test system: MDCK; test: Cytotoxicity against MDCK cells assessed as reduction in cell viability after 72 hrs by MTT assay; format: cell-based; conditions: Canis lupus familiaris

## C=C(C)[C@@H]1CC[C@]2(COC(=O)c3nc(C)c(C)nc3C)CC[C@]3(C)[C@H](CC[C@@H]4[C@@]5(C)CC[C@H](OC(=O)[C@@H](N)CC(C)C)C(C)(C)[C@@H]5CC[C@]43C)[C@@H]12
[1]
  pIC50: < 4.70
[2]
  pIC50: < 4.70
[3]
  pIC50: < 4.70
[4]
  pIC50: < 4.70
[5]
  pIC50: < 4.70

## C=C(C)[C@@H]1CC[C@]2(COC(=O)c3nc(C)c(C)nc3C)CC[C@]3(C)[C@H](CC[C@@H]4[C@@]5(C)CC[C@H](OC(=O)CN(C)C(=O)CNC(C)=O)C(C)(C)[C@@H]5CC[C@]43C)[C@@H]12
[1]
  pIC50: 5.10
[2]
  pIC50: 4.99
[3]
  pIC50: < 4.70
[4]
  pIC50: < 4.70
[5]
  pIC50: < 4.70

## C=C(C)[C@@H]1CC[C@]2(COC(=O)c3nc(C)c(C)nc3C)CC[C@]3(C)[C@H](CC[C@@H]4[C@@]5(C)CC[C@H](OC(=O)[C@H](C)N)C(C)(C)[C@@H]5CC[C@]43C)[C@@H]12
[1]
  pIC50: 5.04
[2]
  pIC50: 5.11
[3]
  pIC50: 5.03
[4]
  pIC50: 4.99
[5]
  pIC50: 4.73

## C=C(C)[C@@H]1CC[C@]2(COC(=O)c3nc(C)c(C)nc3C)CC[C@]3(C)[C@H](CC[C@@H]4[C@@]5(C)CC[C@H](OC(=O)CN(C)C(=O)[C@@H]6CCCN6C(C)=O)C(C)(C)[C@@H]5CC[C@]43C)[C@@H]12
[1]
  pIC50: 4.98
[2]
  pIC50: 5.10
[3]
  pIC50: 5.01
[4]
  pIC50: < 4.70
[5]
  pIC50: < 4.70

## C=C(C)[C@@H]1CC[C@]2(COC(=O)c3nc(C)c(C)nc3C)CC[C@]3(C)[C@H](CC[C@@H]4[C@@]5(C)CC[C@H](OC(=O)CNC(=O)CCNC(C)=O)C(C)(C)[C@@H]5CC[C@]43C)[C@@H]12
[1]
  pIC50: 5.17
[2]
  pIC50: 5.12
[3]
  pIC50: < 4.70
[4]
  pIC50: < 4.70
[5]
  pIC50: 4.80

## C=C(C)[C@@H]1CC[C@]2(CO)CC[C@]3(C)[C@H](CC[C@@H]4[C@@]5(C)CC[C@H](O)C(C)(C)[C@@H]5CC[C@]43C)[C@@H]12 [BETULIN]
[1]
  pIC50: 4.91
[2]
  pIC50: < 4.70
[3]
  pIC50: < 4.70
[4]
  pIC50: < 4.70
[5]
  pIC50: < 4.70

## C=C(C)[C@@H]1CC[C@]2(COC(=O)c3nc(C)c(C)nc3C)CC[C@]3(C)[C@H](CC[C@@H]4[C@@]5(C)CC[C@H](OC(=O)[C@@H](N)Cc6ccccc6)C(C)(C)[C@@H]5CC[C@]43C)[C@@H]12
[1]
  pIC50: < 4.70
[2]
  pIC50: < 4.70
[3]
  pIC50: < 4.70
[4]
  pIC50: < 4.70
[5]
  pIC50: < 4.70

## C=C(C)[C@@H]1CC[C@]2(COC(=O)c3nc(C)c(C)nc3C)CC[C@]3(C)[C@H](CC[C@@H]4[C@@]5(C)CC[C@H](OC(=O)CNC)C(C)(C)[C@@H]5CC[C@]43C)[C@@H]12
[1]
  pIC50: 5.10
[2]
  pIC50: 5.08
[3]
  pIC50: 5.10
[4]
  pIC50: 5.23
[5]
  pIC50: 4.83

## C=C(C)[C@@H]1CC[C@]2(COC(=O)c3nc(C)c(C)nc3C)CC[C@]3(C)[C@H](CC[C@@H]4[C@@]5(C)CC[C@H](O)C(C)(C)[C@@H]5CC[C@]43C)[C@@H]12
[1]
  pIC50: 4.73
[2]
  pIC50: 4.83
[3]
  pIC50: 4.79
[4]
  pIC50: 4.87
[5]
  pIC50: < 4.70

## C=C(C)[C@@H]1CC[C@]2(COC(=O)c3nc(C)c(C)nc3C)CC[C@]3(C)[C@H](CC[C@@H]4[C@@]5(C)CC[C@H](OC(=O)[C@@H]6CCCN6C(=O)CCNC(C)=O)C(C)(C)[C@@H]5CC[C@]43C)[C@@H]12
[1]
  pIC50: 4.98
[2]
  pIC50: < 4.70
[3]
  pIC50: < 4.70
[4]
  pIC50: < 4.70
[5]
  pIC50: < 4.70

## C=C(C)[C@@H]1CC[C@]2(COC(=O)c3nc(C)c(C)nc3C)CC[C@]3(C)[C@H](CC[C@@H]4[C@@]5(C)CC[C@H](OC(=O)CNC(=O)[C@@H]6CCCN6C(C)=O)C(C)(C)[C@@H]5CC[C@]43C)[C@@H]12
[1]
  pIC50: 5.00
[2]
  pIC50: 5.09
[3]
  pIC50: 4.91
[4]
  pIC50: < 4.70
[5]
  pIC50: 4.70

— ChEMBL document CHEMBL4312022, “Design, synthesis, and biological evaluation of ligustrazine - betulin amino-acid/dipeptide derivatives as anti-tumor agents” (Eur J Med Chem, 2020)
